The assay deals with T1, androgen receptor (Homo sapiens, UniProt P10275).
T1 sequence (P10275 1-920 Q868H): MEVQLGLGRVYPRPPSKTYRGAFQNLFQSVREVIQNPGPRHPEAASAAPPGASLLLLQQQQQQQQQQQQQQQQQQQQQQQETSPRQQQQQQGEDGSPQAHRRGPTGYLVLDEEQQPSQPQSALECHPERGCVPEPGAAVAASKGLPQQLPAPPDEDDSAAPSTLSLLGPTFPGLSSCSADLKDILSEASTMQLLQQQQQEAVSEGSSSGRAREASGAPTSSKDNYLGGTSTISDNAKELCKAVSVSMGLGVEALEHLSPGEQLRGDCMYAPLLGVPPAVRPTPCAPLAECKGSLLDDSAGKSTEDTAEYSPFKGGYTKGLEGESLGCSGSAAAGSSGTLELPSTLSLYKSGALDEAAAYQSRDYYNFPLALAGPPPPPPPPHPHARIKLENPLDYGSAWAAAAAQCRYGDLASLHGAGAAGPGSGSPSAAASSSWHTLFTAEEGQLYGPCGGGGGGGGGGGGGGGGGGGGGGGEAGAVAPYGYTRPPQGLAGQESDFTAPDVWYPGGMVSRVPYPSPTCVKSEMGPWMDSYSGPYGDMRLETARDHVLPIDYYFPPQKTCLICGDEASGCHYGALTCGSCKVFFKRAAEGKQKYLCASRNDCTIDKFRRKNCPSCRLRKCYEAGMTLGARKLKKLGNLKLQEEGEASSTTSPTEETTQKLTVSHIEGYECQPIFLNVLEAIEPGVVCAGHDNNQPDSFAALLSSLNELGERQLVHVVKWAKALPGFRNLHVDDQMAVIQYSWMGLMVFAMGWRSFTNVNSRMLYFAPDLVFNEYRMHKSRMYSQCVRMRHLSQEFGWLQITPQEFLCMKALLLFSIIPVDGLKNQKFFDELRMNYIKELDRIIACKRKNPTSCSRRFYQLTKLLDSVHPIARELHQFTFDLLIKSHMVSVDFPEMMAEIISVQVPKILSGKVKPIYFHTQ
Kind of assay: AR Antagonist Cell Assay (MMTV-luciferase reporter, inhibition of DHT induction). Type of assay: cell-based. Conditions: MDA-MB453-MMTV clone 54-19 cells, 100 pM DHT, 17 hr, luciferase; read-out: Cell IC50. As to the method: The compounds ability to antagonize the effects of androgen on the androgen receptor were determined in the protocol described immediately below.
Experimental Procedure for AR Antagonist Cell Assay
Cell line: MDA-MB453-MMTV clone 54–19. This cell line is a stable transfected cell line with MDA-MB453 cell background (human breast tumor cell expressing high level of androgen receptor). A MMTV minimal promoter containing ARE was first cloned in front of a firefly luciferase reporter gene. Then the cascade was cloned into transfection vector pUV120puro. Electroporation method was used for transfecting MDA-MB-453 cell. Puromycin resistant stable cell line was selected. Cell Culture Media and Reagents:
Culture medium: DMEM (high glucose, Gibco cat #: 11960-044), 10% FBS, and 1% L-glutamine
Plating medium: DMEM (phenol red free), 10% charcoal treated HyClone serum, 1% L-glutamine
Assay medium: DMEM (phenol red free), 1% charcoal treated HyClone serum, 1% L-glutamine, and 1% penicillin/streptomycin
3× luciferase buffer: 2% beta-mercaptoethanol, 0.6% ATP, 0.0135% luciferine in cell lysis buffer
• 1. Cells are maintained in culture medium, splitting cells when they reach 80–90% confluence • 2. To test compounds, 10,000 cells/well are plated to opaque 96 cell culture plate in 100 ul/well plating medium, culture for overnight at 37° C. in cell culture incubator • 3. Carefully remove plating medium, then add 80 ul/well of pre-warmed assay medium, add 10 ul/well testing compound (final concentration at 10 uM or 1 uM), incubate at 37° C. for 30 minutes • 4. Add 10 ul/well freshly prepared DHT (final concentration at 100 pM) to each well, incubate at 37° C. for 17 hr (overnight) • 5. Add 50 ul/well 3× luciferase buffer, incubate at room temperature for 5 minutes, then count on Luminometer The fold induction over background by 100 pM DHT in the absence of testing compounds is standardized as 100% and experimental result is expressed as percentage of inhibition by testing compounds.
For orientation: In a reporter assay the amount or activity of a reporter protein is the signal.
For the compound `Cn1c(=O)cc(C(F)(F)F)c2cc(S(=O)(=O)N3CCSC3)ccc21` [Example 7, 1-Methyl-6-(thiazolidine-3-sulfonyl)-4-trifluoromethyl-1H-quinolin-2-one], the half-maximal inhibitory concentration (IC50) – broadly, the midpoint of a concentration-inhibition curve – was greater than 10000 nM.

As to `CC1CN(S(=O)(=O)c2ccc3c(c2)c(C(F)(F)F)cc(=O)n3C)CC(C)O1` (stereo not shown) [Example 10, 6-(2,6Dimethylmorpholine-4-sulfonly)-1-methyl-4-trifluoromethyl-1H-quinolin-2-one], the IC50 is greater than 10000 nM.

On to `O=c1cc(C(F)(F)F)c2cc(S(=O)(=O)N3CCN(CCc4cccs4)CC3)ccc2[nH]1` [Example 32, 6-[4-(2-Thiophen-2-ylethyl)piperazine-1-sulfonyl]-4-trifluoromethyl-1H-quinolin-2-one], for which the half-inhibitory concentration (IC50) came to 2660 nM.

For the compound `O=c1cc(C(F)(F)F)c2cc(S(=O)(=O)N3Cc4ccccc4C3)ccc2[nH]1` [Example 18, 6-(1,3-Dihydroisoindole-2-sulfonyl)-4-trifluoromethyl-1H-quinolin-2-one], the IC50 is 490 nM.

For the compound `O=c1cc(C(F)(F)F)c2cc(S(=O)(=O)N3CCN(c4cnccn4)CC3)ccc2[nH]1` [Example 42, 6-(2,3,5,6-Tetrahydro-[1,2′]bipyrazinyl-4-sulfonyl)-4-trifluoromethyl-1H-quinolin-2-one], the IC50 is greater than 10000 nM.

`O=c1cc(C(F)(F)F)c2cc(S(=O)(=O)N3CCC4(CC3)OCCO4)ccc2[nH]1` [Example 22, 6-(1,4-Dioxa-8-azaspiro[4.5]decane-8-sulfonyl)-4-trifluoromethyl-1H-quinolin-2-one]: the half-maximal inhibitory concentration (IC50) was 1900 nM.

For `Cn1c(=O)cc(C(F)(F)F)c2cc(S(=O)(=O)N3Cc4ccccc4C3)ccc21` [Example 4, 6-(1,3-Dihydroisoindole-2-sulfonyl)-1-methyl-4-trifluoromethyl-1H-quinolin-2-one], the IC50 is greater than 10000 nM.

Turning to `O=c1cc(C(F)(F)F)c2cc(S(=O)(=O)N3CCN(Cc4ccco4)CC3)ccc2[nH]1` [Example 17, 6-(4-Furan-2-ylmethylpiperazine-1-sulfonyl)-4-trifluoromethyl-1H-quinolin-2-one], the half-maximal inhibitory concentration (IC50) was determined as 2960 nM.

Consider `CC1CCCCN1S(=O)(=O)c1ccc2[nH]c(=O)cc(C(F)(F)F)c2c1` (stereo not shown) [Example 37, 6-(2-Methylpiperidine-1-sulfonyl)-4-trifluoromethyl-1H-quinolin-2-one], for which the 50% inhibitory concentration (IC50) is 1550 nM.

On to `O=c1cc(C(F)(F)F)c2cc(S(=O)(=O)N3CCC3)ccc2[nH]1` [Example 39, 6-(Azetidine-1-sulfonyl)-4-trifluoromethyl-1H-quinolin-2-one], for which the IC50 is 430 nM.

Source of the values: US7064207B2, “Androgen receptor antagonists” (Warner Lambert Company LLC, priority 2003, dated 2006).
